Measurements from article PMC8254048, “An interdomain hydrogen bond in the Rag GTPases maintains stable mTORC1 signaling in sensing amino acids” (The Journal of Biological Chemistry, 2021).

Assays:
[1] = target: T1, RagA–RagC GTPase heterodimer (Rag GTPases) (Homo sapiens, UniProt Q7L523+Q9HB90, Q9HB90:S266A); assay: half-site GTP hydrolysis after nucleotide preloading; type: biochemical; details: 1.2 molar equivalents prebound, labelled GTP added; pH 7.4, 2 mM MgCl2, 25 °C; stimulates hydrolysis on second subunit
T1 construct: gene RRAGA; RagA-RagC heterodimer coexpressed in E. coli BL21(DE3); nucleotide stripped with EDTA, gel filtration
T1 sequence (Q7L523 whole entry): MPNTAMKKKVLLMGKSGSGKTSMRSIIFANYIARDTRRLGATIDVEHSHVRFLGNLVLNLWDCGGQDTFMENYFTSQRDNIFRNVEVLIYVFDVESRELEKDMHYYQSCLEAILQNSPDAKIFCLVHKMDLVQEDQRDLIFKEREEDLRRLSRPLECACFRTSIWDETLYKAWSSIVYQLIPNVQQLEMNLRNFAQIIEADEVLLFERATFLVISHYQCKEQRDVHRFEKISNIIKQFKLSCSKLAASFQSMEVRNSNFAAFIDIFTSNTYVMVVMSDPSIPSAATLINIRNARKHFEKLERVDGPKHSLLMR
T1 sequence (Q9HB90 whole entry S266A): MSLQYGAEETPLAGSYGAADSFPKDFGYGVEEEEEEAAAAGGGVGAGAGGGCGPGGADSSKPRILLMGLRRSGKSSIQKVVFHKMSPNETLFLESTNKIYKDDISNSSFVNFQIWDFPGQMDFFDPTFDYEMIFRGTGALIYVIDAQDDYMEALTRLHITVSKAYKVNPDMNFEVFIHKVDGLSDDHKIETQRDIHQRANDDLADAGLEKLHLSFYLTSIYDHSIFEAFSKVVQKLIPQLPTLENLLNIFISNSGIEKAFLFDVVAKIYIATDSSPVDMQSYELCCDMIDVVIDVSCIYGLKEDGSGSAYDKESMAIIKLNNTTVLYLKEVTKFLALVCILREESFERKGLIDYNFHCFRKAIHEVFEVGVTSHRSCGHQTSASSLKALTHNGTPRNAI

[2] = target: T2, RagA–RagC GTPase heterodimer (Rag GTPases) (Homo sapiens, UniProt Q7L523+Q9HB90, Q7L523:T210A); assay: as above; type: biochemical; details: 1.2 molar equivalents prebound, labelled GTP added; pH 7.4, 2 mM MgCl2, 25 °C; stimulates hydrolysis on second subunit
T2 construct: gene RRAGA; RagA-RagC heterodimer coexpressed in E. coli BL21(DE3); nucleotide stripped with EDTA, gel filtration
T2 sequence (Q7L523 whole entry T210A): as the sequence (Q7L523 whole entry) above, with T210A counted along it
T2 sequence (Q9HB90 whole entry): as the sequence (Q9HB90 whole entry S266A) above, with A266S counted along it

Nc1nc2c(ncn2[C@@H]2O[C@H](COP(=O)(O)OP(=O)(O)NP(=O)(O)O)[C@@H](O)[C@H]2O)c(=O)[nH]1 [GppNHp]
half-site GTP hydrolysis after nucleotide preloading [1]: prebound GTP or GppNHp stimulated hydrolysis of the later-bound GTP to a much higher level
half-site GTP hydrolysis after nucleotide preloading [2]: prebound GTP or GppNHp stimulated hydrolysis of the later-bound GTP to a much higher level
